The results in this text go back to patent US20030134859A1 (SANKYO COMPANY, LIMITED, priority 2000, published 2003).

Read-outs that look alike come from different tables or passages of the source.

The subject of one assay is Rat white adipocytes. Put plainly: Inhibition of the differentiation of adipocytes (Oil Red O). Format: cell-based. Particulars: 100 nM test compound, 5 days, Oil Red O ABS550, control = 100%, blank = 0%, Table 3; for activity at 0.1 µM: Rattus norvegicus, Adipocyte, 120 h, read-out: Rate of Differentiation (%). A digest of the protocol: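 Rat white preadipocytes, 5,000 cells/well, given differentiation medium with compound at 100 nM final (0.1% DMSO) for 5 days at 37 °C. Lipid stained with Oil Red O, eluted in DMSO, read at 550 nm; differentiation % relative to DMSO control (100%) and blank (0%).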

Another assay concerns leptin production. Put plainly: Enhancing activity for leptin production in adipocytes (ELISA). Format: cell-based, rat. Particulars: leptin concentration as % of control group; for activity at 1 µM / activity at 0.1 µM / activity at 0.01 µM / activity at 0.001 µM: Rattus norvegicus, Adipocyte, read-out: Facilitating activity to produce leptin; for activity at 0.001 µM: 1 nm. A digest of the protocol:
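Leptin release, quantified by rat leptin ELISA, expressed as percent of 0.1% DMSO control after 24 h at 37 °C. Cells were floating adipocytes isolated by collagenase digestion of epididymal fat from male 6-week Wistar Imamichi rats; compound tested at 1 nM–1 µM final.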

With “N-[4-(4-Methylbenzoylamino)phenyl]phenyl]-(2-chloro-5-nitrophenyl)carboxamide [Example 122]”, the “Rate of Differentiation (%)” value in the assay on Rat white adipocytes is 78.4%. The “Facilitating activity to produce leptin” value is 128.5% in the assay with leptin production (1 μM, 24 hr) and 128.5% in the assay on leptin production (100 nm, 24 hr).
`CCCCCN(CCCC)c1ccc(-c2ccc(NC(=O)c3cc([N+](=O)[O-])ccc3Cl)cc2)cc1` [Example 206, N-[4-[4-(N-Butyl-N-pentylamino)phenyl]phenyl]-(2-chloro-5-nitrophenyl)carboxamide]: the activity at 0.1 µM in the assay with Rat white adipocytes was 30.6%; with leptin production (24 h, 100 nm) it was 112%. In addition, the activity at 1 µM with leptin production (24 h, 1 μM) amounted to 119%.
The matching figures for `Cc1ccc(C(=O)Nc2nc3ccc(NC(=O)c4cc([N+](=O)[O-])ccc4Cl)cc3s2)cc1` [Example 149, N-[2-(4-Methylbenzoylamino)benzothiazol-6-yl]-(2-chloro-5-nitrophenyl)carboxamide]: 80.3%, 111% and 117%.
With `O=C(NC(=S)NCCc1ccc(NC(=O)c2cc([N+](=O)[O-])ccc2Cl)cc1)c1ccccc1` [Example 271, N-[4-(2-Phenylcarbonylaminothiocarbonylaminoethyl)phenyl]-(2-chloro-5-nitrophenyl)carboxamide], the activity at 0.1 µM in the assay on Rat white adipocytes worked out at 45.4%; with leptin production (24 h, 100 nm) it was 115%. The activity at 0.01 µM in the assay on leptin production (24 h, 10 nm) was 121%.
Regarding `O=C(Nc1ccc(-c2ccc(NC(=O)c3cc([N+](=O)[O-])ccc3Cl)cc2)cc1)c1cccnc1` [Example 124, N-[4-[4-(Pyridin-3-ylcarbonylamino)phenyl]phenyl]-(2-chloro-5-nitrophenyl)carboxamide], the activity at 0.1 µM in the assay with Rat white adipocytes is 84.2%; in the assay on leptin production (24 h, 100 nm), 146%. The activity at 1 µM with leptin production (24 h, 1 μM) was found to be 124%. Also, the activity at 0.001 µM with leptin production (24 h) was 113%. For the same molecule, the activity at 0.01 µM in the assay on leptin production (24 h, 10 nm) stood at 113%.
`Cl.O=C(Nc1ccncc1)c1cc([N+](=O)[O-])ccc1Cl` [Example 146, N-(Pyridin-4-yl)-(2-chloro-5-nitrophenyl)carboxamide Hydrochloride]: in the assay with Rat white adipocytes, the “Rate of Differentiation (%)” value turned out to be 78.2%. Besides, the activity at 1 µM in the assay with leptin production (24 h, 1 μM) turned out to be 126%. In addition, the activity at 0.01 µM in the assay with leptin production (24 h, 10 nm) worked out at 112%. In addition, the activity at 0.1 µM with leptin production (24 h, 100 nm) turned out to be 138%.
Take `Cc1ccc(S(=O)(=O)Nc2ccc(-c3ccc(NC(=O)c4cc([N+](=O)[O-])ccc4Cl)cc3)cc2)cc1` [Example 94, N-[4-[4-(4-Toluenesulfonylamino)phenyl]phenyl]-(2-chloro-5-nitrophenyl)carboxamide]: the activity at 0.1 µM turned out to be 68.8% with Rat white adipocytes and 110% in the assay on leptin production (24 h, 100 nm). The activity at 1 µM in the assay with leptin production (24 h, 1 μM) worked out at 116%.
As to `CCOC(=O)NC(=S)Nc1ccc(-c2ccc(NC(=O)c3cc([N+](=O)[O-])ccc3Cl)cc2)cc1` [Example 251, N-[4-[4-(Ethoxycarbonylaminothiocarbonylamino)phenyl]phenyl]-(2-chloro-5-nitrophenyl)carboxamide], the activity at 0.1 µM in the assay on Rat white adipocytes was 39.9%; with leptin production (24 h, 100 nm), 107%. Moreover, the activity at 0.01 µM in the assay on leptin production (24 h, 10 nm) turned out to be 111%.
For the molecule `CCCNc1ccc(-c2ccc(NC(=O)c3cc([N+](=O)[O-])ccc3Cl)cc2)cc1` [Example 204, N-[4-[4-(N-Propylamino)phenyl]phenyl]-(2-chloro-5-nitrophenyl)carboxamide], the activity at 0.1 µM in the assay on Rat white adipocytes was 38.3%; with leptin production (24 h, 100 nm) it was 143%. Also, the activity at 1 µM with leptin production (24 h, 1 μM) was 133%. Further, in the assay with leptin production (24 h, 10 nm), the activity at 0.01 µM was found to be 129%.
On to “N-[4-(Benzenesulfonylaminophenyl)phenyl]-(2-chloro-5-nitrophenyl)carboxamide [Example 128]”, for which the “Rate of Differentiation (%)” value with Rat white adipocytes worked out at 35.4%. Also, the “Facilitating activity to produce leptin” value is given as 137.3% with leptin production (1 μM, 24 hr); 108.8% in the assay on leptin production (10 nm, 24 hr); 130.8% in the assay on leptin production (100 nm, 24 hr).
Regarding `CCCCN(CCC)c1ccc(-c2ccc(NC(=O)c3cc([N+](=O)[O-])ccc3Cl)cc2)cc1` [Example 208, N-[4-[4-(N-Butyl-N-propylamino)phenyl]phenyl]-(2-chloro-5-nitrophenyl)carboxamide], the activity at 0.1 µM in the assay with Rat white adipocytes was found to be 35.1%; in the assay on leptin production (24 h, 100 nm) it was 111%.
With `O=C(Nc1ccc(Cl)nc1)c1cc([N+](=O)[O-])ccc1Cl` [Example 62, N-(6-Chloropyridin-3-yl)-(2-chloro-5-nitrophenyl)carboxamide], the activity at 0.1 µM turned out to be 68.5% in the assay with Rat white adipocytes and 132% with leptin production (24 h, 100 nm). In addition, the activity at 0.001 µM with leptin production (24 h) was 119%. Further, the activity at 0.01 µM in the assay with leptin production (24 h, 10 nm) was 115%.
With `CCCN(CC)c1ccc(-c2ccc(NC(=O)c3cc([N+](=O)[O-])ccc3Cl)cc2)cc1` [Example 212, N-[4-[4-(N-Ethyl-N-propylamino)phenyl]phenyl]-(2-chloro-5-nitrophenyl)carboxamide], the activity at 0.1 µM with Rat white adipocytes stood at 44%. In the assay on leptin production (24 h, 1 μM), the activity at 1 µM turned out to be 112%.
Turning to `O=C(Nc1ncc(Br)cn1)c1cc([N+](=O)[O-])ccc1Cl` [Example 77, N-(5-Bromopyrimidin-2-yl)-(2-chloro-5-nitrophenyl)carboxamide], the activity at 0.1 µM was 68% in the assay with Rat white adipocytes and 130% in the assay with leptin production (24 h, 100 nm). Also, the activity at 1 µM in the assay with leptin production (24 h, 1 μM) is 113%. For the same molecule, in the assay with leptin production (24 h), the activity at 0.001 µM came out at 108%. The activity at 0.01 µM with leptin production (24 h, 10 nm) is 110%.
Consider `CCCCNc1ccc(-c2ccc(NC(=O)c3cc([N+](=O)[O-])ccc3Cl)cc2)cc1` [Example 203, N-[4-[4-(N-Butylamiino)phenyl]phenyl]-(2-chloro-5-nitrophenyl)carboxamide], for which the “Rate of Differentiation (%)” value in the assay with Rat white adipocytes is recorded as 32.6%. Moreover, the “Facilitating activity to produce leptin” value in the assay on leptin production (1 μM, 24 hr) was determined as 133.9%; with leptin production (10 nm, 24 hr), 134.6%; with leptin production (100 nm, 24 hr), 124.8%.
In the case of `CS(=O)(=O)Nc1ccc(-c2ccc(NC(=O)c3cc([N+](=O)[O-])ccc3Cl)cc2)cc1` [Example 93, N-[4-[4-(Methanesulfonylamino)phenyl]phenyl]-(2-chloro-5-nitrophenyl)carboxamide], the activity at 0.1 µM in the assay on Rat white adipocytes was 62.9%. Also, the activity at 1 µM in the assay on leptin production (24 h, 1 μM) is 114%.
Regarding `N#Cc1cccc(NC(=O)c2cc([N+](=O)[O-])ccc2Cl)c1` [Example 21, N-(3-Cyanophenyl)-(2-chloro-5-nitrophenyl)carboxamide], the activity at 0.1 µM in the assay on Rat white adipocytes was 63%; in the assay on leptin production (24 h, 100 nm), 150%. Moreover, in the assay with leptin production (24 h, 1 μM), the activity at 1 µM is 130%. In the assay on leptin production (24 h), the activity at 0.001 µM was found to be 116%. In the assay with leptin production (24 h, 10 nm), the activity at 0.01 µM stood at 120%.
For the molecule `O=C(Nc1ccc(-c2ccc(NC(=O)c3cc([N+](=O)[O-])ccc3Cl)cc2)cc1)c1ccncc1` [Example 126, N-[4-[4-(Pyridin-4-ylcarbonylamino)phenyl]phenyl]-(2-chloro-5-nitrophenyl)carboxamide], the activity at 0.1 µM with Rat white adipocytes was determined as 75.2%; with leptin production (24 h, 100 nm), 121%. In addition, the activity at 1 µM with leptin production (24 h, 1 μM) worked out at 142%. In addition, the activity at 0.01 µM in the assay with leptin production (24 h, 10 nm) is 109%.
Regarding `O=C(Nc1ccncc1)c1cc([N+](=O)[O-])ccc1Cl` [Example 49, N-(4-Pyridyl)-(2-chloro-5-nitrophenyl)carboxamide], the activity at 0.1 µM in the assay on Rat white adipocytes is 71%; with leptin production (24 h, 100 nm), 133%. Besides, the activity at 1 µM with leptin production (24 h, 1 μM) came out at 121%. Also, the activity at 0.01 µM in the assay on leptin production (24 h, 10 nm) is 131%.
As to `CCS(=O)(=O)Nc1ccc(-c2ccc(NC(=O)c3cc([N+](=O)[O-])ccc3Cl)cc2)cc1` [Example 130, N-[4-(4-Ethanesulfonylaminophenyl)phenyl]-(2-chloro-5-nitrophenyl)carboxamide], the activity at 0.1 µM was 64% with Rat white adipocytes and 123% in the assay with leptin production (24 h, 100 nm). Moreover, in the assay with leptin production (24 h, 1 μM), the activity at 1 µM came to 116%.
As to `O=C(Nc1ccc(-c2ccc(NC(=O)c3cc([N+](=O)[O-])ccc3Cl)cc2)cc1)Nc1ccccc1[N+](=O)[O-]` [Example 254, N-[4-[4-(2-Nitrophenylaminocarbonylamino)phenyl]phenyl]-(2-chloro-5-nitrophenyl)carboxamide], the activity at 0.1 µM was determined as 52.8% with Rat white adipocytes and 106% in the assay on leptin production (100 nm, 24 hr). Besides, the activity at 1 µM in the assay on leptin production (1 μM, 24 hr) was found to be 109%. Further, in the assay on leptin production (10 nm, 24 hr), the activity at 0.01 µM turned out to be 111%.
In the case of `CC(=O)Nc1ccc(-c2ccc(NC(=O)c3cc([N+](=O)[O-])ccc3Cl)cc2)cc1` [Example 118, N-[4-(4-Acetylaminophenyl)phenyl]-(2-chloro-5-nitrophenyl)carboxamide], the activity at 0.1 µM in the assay on Rat white adipocytes was 53.6%; with leptin production (24 h, 100 nm) it was 127%. The activity at 1 µM in the assay with leptin production (24 h, 1 μM) turned out to be 134%. In addition, in the assay with leptin production (24 h), the activity at 0.001 µM is 114%. Besides, the activity at 0.01 µM with leptin production (24 h, 10 nm) is 115%.
Turning to `CCCCN(CC)c1ccc(-c2ccc(NC(=O)c3cc([N+](=O)[O-])ccc3Cl)cc2)cc1` [Example 209, N-[4-[4-(N-Butyl-N-ethylamino)phenyl]phenyl]-(2-chloro-5-nitrophenyl)carboxamide], the activity at 0.1 µM in the assay on Rat white adipocytes came out at 40.1%; in the assay with leptin production (24 h, 100 nm), 111%. In addition, the activity at 1 µM in the assay with leptin production (24 h, 1 μM) amounted to 117%.
